Results taken from patent US5166374A, “Bile acid derivatives, processes for the preparation thereof and pharmaceutical compositions containing them” (Giuliani S.p.A., priority 1989, dated 1992).
In brackets after ≈: the same amount, converted by molar mass. Entries after “also recorded” stand apart in the source; their conditions may differ. Where two headings read alike, the source gives them in different places.

Experiments:
[1] = liver uptake, biliary secretion and metabolism after intravenous administration; type: in vivo
[2] = critical micellar concentration (CMC), detergency; type: physicochemical
Method: -critical micellar concentration (CMC) or "detergency",
(§1) were evaluated according to conventional methods. Critical micellar concentration.
comparison with UDCA, GUDCA and TUDCA

acidity constant (pKa) = type: physicochemical
Method: as §1

solubility in water = type: physicochemical; details: for solubility: water
bile flow = assay: choleretic effect after i.v. or i.d. administration; type: in vivo
[3] = critical micellar pH (CMpH); type: physicochemical
Method: as §1

[4] = lipophilicity (K' from retention times on C18 HPLC); type: physicochemical; details: for rK' C-18 (relative values): Table III
From the text: K' = calculated from retention times (t) on C18 HPLC according to
where to = time of unretained solvent, under the following

[5] = intestinal absorption, biliary recovery and metabolism after intraduodenal administration; type: in vivo
[6] = system: bile flow and biliary secretion; assay: effect on bile flow and biliary lipid secretion when administered i.v. to rat; type: in vivo; details: for SMAB (mean maximum biliary secretion) / SMFL (mean maximum biliary lipid secretion) / SMVo (mean maximum bile flow) / SMxol (mean maximum biliary lipid secretion): rat, i.v., Table II
From the text: Effect of 24-ISOP on bile flow and biliary
SVo = mean maximum bile flow.
SM = mean maximum biliary lipid secretion.

[7] = Table I, calculated from retention times on C18 HPLC, CH3OH/KH2PO4 0.01 M 130/70 v/v, pH = 7, read-out: K' (converted)

SMILES	CMC ([2]; Table I) [mM]	SMAB (mean maximum biliary secretion) [6] [µmol/min/kg]	SMFL (mean maximum biliary lipid secretion) [6] [µmol/min/kg]	SMVo (mean maximum bile flow) [6] [mL/h/kg]	SMxol (mean maximum biliary lipid secretion) [6] [µmol/min/kg]	CMC ([2]; Table III) [mM]	solubility (in words) (solubility in water)	rK' C-18 (relative values) [4]	chromatographic logD [4, 7]	further results
C[C@H](CCC(=O)CCC(=O)O)[C@H]1CC[C@H]2[C@@H]3[C@@H](O)C[C@@H]4C[C@H](O)CC[C@]4(C)[C@H]3CC[C@]12C [Example 24-ISOP, 3α, 7β-dihydroxy-24-oxo-5β-cholan-27-oic acid]	9	2.62	0.21	5.22	0.020	–	–	–	–	disappearance from bile ([1]; in vivo): disappears from bile with a kinetic similar to conjugate forms of UDCA and faster than UDCA; kinetic of the biliary secretion ([1]; in vivo, iv): very fast in comparison with UDCA and more similar to tauroursodeoxycholic acid; metabolites / conjugation ([1]; intravenous): no significant metabolites are present; recovery in bile ([1]; intravenous): completely recovered in bile with a rapid kinetic; pKa (acidity constant (pKa); pKa value): 4.2; solubility (solubility in water; Solubility): 20 µM (≈ 8.97 µg/mL); choleretic effect (bile flow): high choleretic effect, higher than that of UDCA; critical micellar pH (in words) [3]: low critical micellar pH; also recorded: soluble when present in micellar form at a pH lower than UDCA (low CMpH); chromatographic logD ([4]; c18 hplc, ch3oh/kh2po4, pH 7): 0.326; metabolites ([5]; in vivo): no major metabolites are present; recovery in bile ([5]; intraduodenal): significantly higher than that of glycoursodeoxycholic and similar to UDCA and TUDCA; effect on bile flow (in words) ([6]; intravenous): great effect on bile flow, higher than that of UDCA and its conjugated forms; transport and secretion of cholesterol and phospholipids (in words) ([6]; intravenous): no significative differences
C[C@H](CCC(=O)CCC(=O)O)[C@H]1CC[C@H]2[C@@H]3[C@@H](O)C[C@@H]4C[C@H](O)CC[C@]4(C)[C@H]3C[C@H](O)[C@]12C [Example 24-PUCA, 3α, 7β, 12α-Trihydroxy-24-oxo-5β-cholan-27-oic acid]	–	–	–	–	–	28	very soluble also in protonated form	0,20	–	CMC / detergency (in words) [2]: mild detergency; pKa (in words) (acidity constant (pKa)): lower to than that of the natural analogues UCA and UDCA and similar to that of 24-PUDCA; pKa (acidity constant (pKa); pKa): 3.85; water solubility relative to UDCA and 24-PUDCA (solubility in water): about 100 times; solubility (solubility in water; water solubility): 1800 µM (≈ 836 µg/mL); critical micellar pH (in words) [3]: low CMpH value; lipophilicity (in words) [4]: intermediate between UCA and UDCA
C[C@H](CCC(=O)CCC(=O)O)[C@H]1CC[C@H]2[C@@H]3[C@@H](O)C[C@@H]4C[C@H](O)CC[C@]4(C)[C@H]3CC[C@]12C [Example 24-PUDCA]	–	–	–	–	–	9	–	0,44	–	pKa (acidity constant (pKa); pKa): 3.9; solubility (solubility in water; water solubility): 13 µM (≈ 5.83 µg/mL)
C[C@H](CCC(=O)NCC(=O)O)[C@H]1CC[C@H]2[C@@H]3[C@@H](O)C[C@@H]4C[C@H](O)CC[C@]4(C)[C@H]3CC[C@]12C [GUDCA, glycoursodeoxycholic acid]	12	2.10	0.39	2.4	0.028	–	low solubility at low pH	–	0.0253	solubility (solubility in water; Table I, read-out: Solubility): 3 µM (≈ 1.35 µg/mL)
C[C@H](CCC(=O)NCCS(=O)(=O)O)[C@H]1CC[C@H]2[C@@H]3[C@@H](O)C[C@@H]4C[C@H](O)CC[C@]4(C)[C@H]3CC[C@]12C [TUDCA, tauroursodeoxycholic acid]	8	3.40	0.18	2.16	0.014	–	–	–	-0.00877	–
C[C@H](CCC(=O)O)[C@H]1CC[C@H]2[C@@H]3[C@@H](O)C[C@@H]4C[C@H](O)CC[C@]4(C)[C@H]3C[C@H](O)[C@]12C [UCA, ursocholic]	–	–	–	–	–	60	–	–	–	–
C[C@H](CCC(=O)O)[C@H]1CC[C@H]2[C@@H]3[C@@H](O)C[C@@H]4C[C@H](O)CC[C@]4(C)[C@H]3CC[C@]12C [UDCA, ursodeoxycholic, reference compound]	19	3.02	0.227	3.6	0.022	19	low solubility at low pH	0,4	0.563	metabolites / conjugation ([1]; in vivo, iv): completely transformed into its conjugated form, tauroursodexycholic acid and to less extent into glycoursodeoxycholic acid; pKa (acidity constant (pKa); Acidity constant, read-out: pKa value): 6; pKa (acidity constant (pKa); Table I): 5.06; pKa (acidity constant (pKa); Table III): 5; solubility (solubility in water; Table III, read-out: water solubility): 19 µM (≈ 7.46 µg/mL); solubility (solubility in water; Table I, read-out: Solubility): 9 µM (≈ 3.53 µg/mL)
